≈ marks a conversion by molar mass, not a printed value. Where “and” joins values, the source holds several entries; their conditions need not be identical. Equal entries are not always repeated.
What was measured:
Daphnia magna = settings: chronic/long-term; duration: 21 days
Pontoscolex corethrurus = settings: acute; mortality
Bibionidae = settings: chronic/long-term
Neomysis kadiakensis = settings: chronic/long-term; duration: 28 days
Lepomis macrochirus = settings: acute, duration: 96 hours
Aphidius rhopalosiphi = experiment: LR50; higher = less toxic; settings: not reported; mortality
Apis mellifera = settings: acute, mortality
Canidae = settings: oral, Dog Other, clinical signs
[1] = short-term, duration: 5 days, oral, diet, food consumption

N#Cc1nn(-c2c(Cl)cc(C(F)(F)F)cc2Cl)c(N)c1C(F)(F)F [Fipronil desulfinyl]
NOEL (Colinus virginianus; [1]): 7.12 mg/kg-day

N#Cc1nn(-c2c(Cl)cc(C(F)(F)F)cc2Cl)c(N)c1SC(F)(F)F [Fipronil sulfide]
NOEC (Daphnia magna): 0.013 mg/L | LC50 (Oncorhynchus mykiss; acute, duration: 96 hours, mortality): 0.0295 µg/mL (≈ 0.07 µM) | LC50 (Pontoscolex corethrurus): > 1000 mg/kg | NOEC (Bibionidae; duration: 28 days): 0.000117 mg/L and 0.000193 mg/kg | NOEC (Neomysis kadiakensis): 4.6e-06 mg/L | NOEL (Colinus virginianus; [1]): 6.98 mg/kg-day

N#Cc1nn(-c2c(Cl)cc(C(F)(F)F)cc2Cl)c(N)c1S(=O)(=O)C(F)(F)F [Fipronil sulfone]
LC50 (Pontoscolex corethrurus): > 1000 mg/kg | NOEC (Bibionidae): 6.9e-05 mg/L | NOEC (Bibionidae; duration: 28 days): 0.000165 mg/kg | LC50 (Lepomis macrochirus): 0.025 µg/mL (≈ 0.0552 µM) | NOEL (Colinus virginianus; [1]): 7.83 mg/kg-day

N#Cc1nn(-c2c(Cl)cc(C(F)(F)F)cc2Cl)c(N)c1S(=O)C(F)(F)F (centres undefined) [Fipronil]
LR50 (Aphidius rhopalosiphi): 0.01 g/ha | NOEC (Daphnia magna): 0.0098 mg/L | NOEC (Oncorhynchus mykiss; chronic/long-term, duration: 90 days): 0.015 mg/L | LC50 (Tagia sp.; acute, mortality): > 1000 mg/kg | NOEC (Tagia sp.; chronic/long-term): 1000 mg/kg | NOEC (Bibionidae): 0.000193 mg/kg | NOEC (Bibionidae; duration: 28 days): 0.000117 mg/L | LC50 (Lepomis macrochirus; mortality): 0.0852 µg/mL (≈ 0.195 µM) | LD50 (Apis mellifera; dermal): 0.00593 µg/piece | LD50 (Apis mellifera; oral, unspecified): 0.00417 µg/piece | NOAEL (Canidae; chronic, duration: 1 years): 0.35 mg/kg-day | NOAEL (Canidae; subchronic, duration: 90 days): 0.35 mg/kg-day | LD50 (Colinus virginianus; acute, oral, mortality): 11.3 mg/kg | NOEL (Colinus virginianus; reproduction developmental): 0.88 mg/kg-day | NOEL (Colinus virginianus; [1]): 3.77 mg/kg-day | LD50 (Rattus norvegicus; acute, oral, M, mortality): 92 mg/kg | NOAEL (Rattus norvegicus; chronic, duration: 2 years, clinical signs): 0.02 mg/kg-day | NOAEL (Rattus norvegicus; developmental, development): 0.9 mg/kg-day | NOEL (Rattus norvegicus; reproduction developmental, M, reproduction): 2.53 mg/kg-day | NOAEL (Rattus norvegicus; subchronic, duration: 90 days, oral, clinical signs): 0.35 mg/kg-day | LC50 (Cyprinodon variegatus; acute, duration: 96 hours): 0.13 µg/mL (≈ 0.297 µM) | NOEC (Cyprinodon variegatus; chronic/long-term, duration: 138 days): 0.006 mg/L

— EPA's ToxValDB 9.5 (doi:10.2903/j.efsa.2006.65r)
